{"source": "PubChem BioAssay AID2060361", "about": "(Molecular Pharmacology Branch, DTP, NCI, 2025);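 also: spheroids exposed to drugs for seven days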;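 as to viability, T/C: 100% = DMSO vehicle control wells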", "test_system": "463943-066-T-J2-PDC tumor spheroids with HUVEC/MSC, viability", "assay": "Anticancer human tumor 463943-066-T-J2-PDC patient-derived colon adenocarcinoma cell line growth inhibition [TAK]", "conditions": "for IC50: curve of first compound; for viability, T/C: stronger effect = lower value", "description": "Combinatorial screen of targeted agents with TAK-243 and ipatasertib in multi-cell type tumor spheroids\nA high-throughput screen of multi-cell type tumor spheroids was designed to identify active combinations of targeted small molecules and TAK-243 or ipatasertib. Complex spheroids include a stromal component modeled by human endothelial cells (HUVEC) and fibroblasts modeled by human mesenchymal stem cells (MSCs). The concentration ranges selected for each drug and investigational agent were based upon clinically achievable concentrations if the clinical Cmax of the agent was known.\nCompounds. The drugs and investigational agents: TAK-243 (785004), ipatasertib (767898), everolimus (733504), selumetinib (741078), bortezomib (756655), trametinib (758246), ixazomib (758254), vemurafenib (761431), dabrafenib (764134), sapanisertib (764658), alpelisib (765974), and copanlisib (816437), were obtained from the National Cancer Institute (NCI) Developmental Therapeutics Program Chemical Repository. The FDA-approved anticancer drug set is available from the NCI Developmental Therapeutics Program. […] The stock solutions were prepared in dimethyl sulfoxide (DMSO, Sigma-Aldrich, St. Louis, MO, cat. D2650) at 800-fold the tested concentration and stored at -70 degrees C prior to their use. All drugs and investigational agents were tested over a range starting from a high concentration at or near the clinical Cmax and decreasing in half-log increments. If the clinical Cmax for an agent had not been determined, the highest concentration tested was 10 microM.\nNCI60 Cell Culture. NCI60 cell lines were obtained from the NCI Developmental Therapeutics Program Tumor Repository. For each lot of cells, the Repository performed Applied Biosystems AmpFLSTR Identifiler testing with PCR amplification to confirm consistency with the published Identifier STR profile for each cell line. Cells were kept in continuous culture for no more than 20 passages. The optimal seeding densities for each of the cell lines at each time point assessed were determined prior to performing the concentration response studies. Briefly, the NCI60 human tumor lines were grown as monolayers in RPMI 1640 medium supplemented with 10% FBS and 2 mmol/L L-glutamine.\nAn additional 2 lines were from the NCI60 cell line panel including melanomas, MALME-3M and SK-MEL-2. Pooled donor human umbilical vein endothelial cells (HUVEC, Lonza, cat. CC-2519) and human mesenchymal stem cells (hMSC, Lonza, cat. PT-2501) were purchased from Lonza (Walkersville, MD).\nPDMR cell lines were grown in complete medium (DC medium): Dulbecco's modified Eagle's medium (DMEM)/F12 supplemented with 5% fetal bovine serum (FBS), 2 mM L-glutamine, 100 U/mL penicillin and 100 µg/ml streptomycin, 0.4 µg/ml hydrocortisone, 10 ng/ml epidermal growth factor (EGF) recombinant human protein, 24 µg/mL adenine, and 0.1 mg/mL primocin. During culture from frozen stock vials, PDMR cells were cultured in the same medium containing 10 µM Y-27632 (see Table 3). The PDCs were cultured in complete DMEM/F12 media without 10 microM Y-27632 dihydrochloride for at least two passages prior to the screen. The pooled donor HUVEC and hMSC were cultured in endothelial cell growth medium 2 (PromoCell, Heidelberg, Germany, cat. C-22011) and mesenchymal stem cell growth medium 2 (PromoCell, cat. C-28009), respectively. For all experiments, HUVEC and hMSC were used at passages </=5.\nFor the pre-screen, cell seeding densities were determined from a titration spanning the range from 5,000 to 313 cells per well. The mct-spheroids including 60% malignant cells, 25% HUVEC and 15% MSC dispensed as a mixture into U-bottom Ultra-Low Attachment 384-well plates (Corning, NY)\nHigh-throughput Drug Combination Screening.\nPrior to their inoculation into 384-well plates, malignant cells, HUVEC, and hMSC were removed from T flasks using TrypLE express (Thermo Fisher Scientific, cat. 12605036) and harvested by centrifugation for 5 min at 233 x g. […]", "data": [{"smiles": "CC(C)CC(NC(=O)C(Cc1ccccc1)NC(=O)c1cnccn1)B(O)O", "note": "(stereo not given) + CC(C)NCC(C(=O)N1CCN(c2ncnc3c2C(C)CC3O)CC1)c1ccc(Cl)cc1", "values": [{"measurement": "IC50", "setting": "second compound 0.3 µM", "value": "> 10", "unit": "nM"}, {"measurement": "IC50", "setting": "second compound 0.949 µM", "value": "> 10", "unit": "nM"}, {"measurement": "IC50", "setting": "second compound 3 µM", "value": "> 10", "unit": "nM"}, {"measurement": "IC50", "setting": "second compound 9.49 µM", "value": "> 10", "unit": "nM"}, {"measurement": "IC50", "setting": "second compound 30 µM", "value": "> 10", "unit": "nM"}, {"measurement": "viability, T/C", "setting": "second compound 0.3 µM, first compound 31.6 pM", "value": 98.3, "unit": "%"}, {"measurement": "viability, T/C", "setting": "second compound 0.3 µM, first compound 0.0001 µM", "value": 99.2, "unit": "%"}, {"measurement": "viability, T/C", "setting": "second compound 0.3 µM, first compound 0.000316 µM", "value": 92.3, "unit": "%"}, {"measurement": "viability, T/C", "setting": "second compound 0.3 µM, first compound 0.001 µM", "value": 91.4, "unit": "%"}, {"measurement": "viability, T/C", "setting": "second compound 0.3 µM, first compound 0.00316 µM", "value": 93.1, "unit": "%"}, {"measurement": "viability, T/C", "setting": "second compound 0.3 µM, first compound 0.01 µM", "value": 84.1, "unit": "%"}, {"measurement": "viability, T/C", "setting": "second compound 0.949 µM, first compound 31.6 pM", "value": 89.1, "unit": "%"}, {"measurement": "viability, T/C", "setting": "second compound 0.949 µM, first compound 0.0001 µM", "value": 81.8, "unit": "%"}, {"measurement": "viability, T/C", "setting": "second compound 0.949 µM, first compound 0.000316 µM", "value": 89.4, "unit": "%"}, {"measurement": "viability, T/C", "setting": "second compound 0.949 µM, first compound 0.001 µM", "value": 84.3, "unit": "%"}, {"measurement": "viability, T/C", "setting": "second compound 0.949 µM, first compound 0.00316 µM", "value": 85.2, "unit": "%"}, {"measurement": "viability, T/C", "setting": "second compound 0.949 µM, first compound 0.01 µM", "value": 77.3, "unit": "%"}, {"measurement": "viability, T/C", "setting": "second compound 3 µM, first compound 31.6 pM", "value": 90.5, "unit": "%"}, {"measurement": "viability, T/C", "setting": "second compound 3 µM, first compound 0.0001 µM", "value": 96, "unit": "%"}, {"measurement": "viability, T/C", "setting": "second compound 3 µM, first compound 0.000316 µM", "value": 97.3, "unit": "%"}, {"measurement": "viability, T/C", "setting": "second compound 3 µM, first compound 0.001 µM", "value": 94.4, "unit": "%"}, {"measurement": "viability, T/C", "setting": "second compound 3 µM, first compound 0.00316 µM", "value": 78.5, "unit": "%"}, {"measurement": "viability, T/C", "setting": "second compound 3 µM, first compound 0.01 µM", "value": 81.8, "unit": "%"}, {"measurement": "viability, T/C", "setting": "second compound 9.49 µM, first compound 31.6 pM", "value": 85.4, "unit": "%"}, {"measurement": "viability, T/C", "setting": "second compound 9.49 µM, first compound 0.0001 µM", "value": 95.5, "unit": "%"}, {"measurement": "viability, T/C", "setting": "second compound 9.49 µM, first compound 0.000316 µM", "value": 82.7, "unit": "%"}, {"measurement": "viability, T/C", "setting": "second compound 9.49 µM, first compound 0.001 µM", "value": 88.9, "unit": "%"}, {"measurement": "viability, T/C", "setting": "second compound 9.49 µM, first compound 0.00316 µM", "value": 82.7, "unit": "%"}, {"measurement": "viability, T/C", "setting": "second compound 9.49 µM, first compound 0.01 µM", "value": 77, "unit": "%"}, {"measurement": "viability, T/C", "setting": "second compound 30 µM, first compound 31.6 pM", "value": 88.2, "unit": "%"}, {"measurement": "viability, T/C", "setting": "second compound 30 µM, first compound 0.0001 µM", "value": 85.3, "unit": "%"}, {"measurement": "viability, T/C", "setting": "second compound 30 µM, first compound 0.000316 µM", "value": 91.4, "unit": "%"}, {"measurement": "viability, T/C", "setting": "second compound 30 µM, first compound 0.001 µM", "value": 88.2, "unit": "%"}, {"measurement": "viability, T/C", "setting": "second compound 30 µM, first compound 0.00316 µM", "value": 88.7, "unit": "%"}, {"measurement": "viability, T/C", "setting": "second compound 30 µM, first compound 0.01 µM", "value": 70.2, "unit": "%"}]}, {"smiles": "Cn1cnc2c(F)c(Nc3ccc(Br)cc3Cl)c(C(=O)NOCCO)cc21", "note": "+ CC(C)NCC(C(=O)N1CCN(c2ncnc3c2C(C)CC3O)CC1)c1ccc(Cl)cc1", "values": [{"measurement": "IC50", "setting": "second compound 0.3 µM", "value": "> 3000", "unit": "nM"}, {"measurement": "IC50", "setting": "second compound 0.949 µM", "value": "> 3000", "unit": "nM"}, {"measurement": "IC50", "setting": "second compound 3 µM", "value": "> 3000", "unit": "nM"}, {"measurement": "IC50", "setting": "second compound 9.49 µM", "value": "> 3000", "unit": "nM"}, {"measurement": "IC50", "setting": "second compound 30 µM", "value": "> 3000", "unit": "nM"}, {"measurement": "viability, T/C", "setting": "second compound 0.3 µM, first compound 0.00949 µM", "value": 102, "unit": "%"}, {"measurement": "viability, T/C", "setting": "second compound 0.3 µM, first compound 0.03 µM", "value": 115, "unit": "%"}, {"measurement": "viability, T/C", "setting": "second compound 0.3 µM, first compound 0.0949 µM", "value": 92.8, "unit": "%"}, {"measurement": "viability, T/C", "setting": "second compound 0.3 µM, first compound 0.3 µM", "value": 78, "unit": "%"}, {"measurement": "viability, T/C", "setting": "second compound 0.3 µM, first compound 0.949 µM", "value": 72.6, "unit": "%"}, {"measurement": "viability, T/C", "setting": "second compound 0.3 µM, first compound 3 µM", "value": 54.6, "unit": "%"}, {"measurement": "viability, T/C", "setting": "second compound 0.949 µM, first compound 0.00949 µM", "value": 101, "unit": "%"}, {"measurement": "viability, T/C", "setting": "second compound 0.949 µM, first compound 0.03 µM", "value": 105, "unit": "%"}, {"measurement": "viability, T/C", "setting": "second compound 0.949 µM, first compound 0.0949 µM", "value": 77.6, "unit": "%"}, {"measurement": "viability, T/C", "setting": "second compound 0.949 µM, first compound 0.3 µM", "value": 69.2, "unit": "%"}, {"measurement": "viability, T/C", "setting": "second compound 0.949 µM, first compound 0.949 µM", "value": 63.9, "unit": "%"}, {"measurement": "viability, T/C", "setting": "second compound 0.949 µM, first compound 3 µM", "value": 62.3, "unit": "%"}, {"measurement": "viability, T/C", "setting": "second compound 3 µM, first compound 0.00949 µM", "value": 90.4, "unit": "%"}, {"measurement": "viability, T/C", "setting": "second compound 3 µM, first compound 0.03 µM", "value": 103, "unit": "%"}, {"measurement": "viability, T/C", "setting": "second compound 3 µM, first compound 0.0949 µM", "value": 85.2, "unit": "%"}, {"measurement": "viability, T/C", "setting": "second compound 3 µM, first compound 0.3 µM", "value": 76.2, "unit": "%"}, {"measurement": "viability, T/C", "setting": "second compound 3 µM, first compound 0.949 µM", "value": 70.3, "unit": "%"}, {"measurement": "viability, T/C", "setting": "second compound 3 µM, first compound 3 µM", "value": 58.4, "unit": "%"}, {"measurement": "viability, T/C", "setting": "second compound 9.49 µM, first compound 0.00949 µM", "value": 102, "unit": "%"}, {"measurement": "viability, T/C", "setting": "second compound 9.49 µM, first compound 0.03 µM", "value": 94.6, "unit": "%"}, {"measurement": "viability, T/C", "setting": "second compound 9.49 µM, first compound 0.0949 µM", "value": 88.5, "unit": "%"}, {"measurement": "viability, T/C", "setting": "second compound 9.49 µM, first compound 0.3 µM", "value": 79.8, "unit": "%"}, {"measurement": "viability, T/C", "setting": "second compound 9.49 µM, first compound 0.949 µM", "value": 70.2, "unit": "%"}, {"measurement": "viability, T/C", "setting": "second compound 9.49 µM, first compound 3 µM", "value": 67.1, "unit": "%"}, {"measurement": "viability, T/C", "setting": "second compound 30 µM, first compound 0.00949 µM", "value": 103, "unit": "%"}, {"measurement": "viability, T/C", "setting": "second compound 30 µM, first compound 0.03 µM", "value": 92.2, "unit": "%"}, {"measurement": "viability, T/C", "setting": "second compound 30 µM, first compound 0.0949 µM", "value": 88.6, "unit": "%"}, {"measurement": "viability, T/C", "setting": "second compound 30 µM, first compound 0.3 µM", "value": 71.7, "unit": "%"}, {"measurement": "viability, T/C", "setting": "second compound 30 µM, first compound 0.949 µM", "value": 71.3, "unit": "%"}, {"measurement": "viability, T/C", "setting": "second compound 30 µM, first compound 3 µM", "value": 60.1, "unit": "%"}]}]}
